One assay deals with HAP1 MTAP-intact. As to the kind of experiment: SDMA in-cell western assay, HAP1 MTAP-intact cell line. The assay is classed as cell-based. Particulars: Homo sapiens. An outline of the steps: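 Cells from two matched HAP1 lines, MTAP-null and MTAP-expressing at endogenous levels, are treated with compound. SDMA is then quantified by in-cell western and an IC50 is calculated for each line.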

Assay [1] concerns the target T1, PRMT5 (Homo sapiens, UniProt O14744).
T1 construct: purchased Viva (custom protein)
As to the kind of experiment: PRMT5 IC50 assay with no cofactor. The assay is classed as biochemical. The method, boiled down:
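Cofactor-free, SAM and MTA formats; IC50 μM; Ki = IC50/1.5 for SAM, IC50/13.5 for MTA.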

The target in assay [2] is T1, PRMT5. As to the kind of experiment: PRMT5 IC50 assay in the presence of MTA as cofactor. It counts as biochemical. Particulars: for IC50: PRMT5, MTA as cofactor. An outline of the steps:
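IC50 against PRMT5 determined with SAM as cofactor, with no cofactor, and with MTA as cofactor. Ki derived as IC50/1.5 for the SAM assay and IC50/13.5 for the MTA assay; SAM Ki to MTA Ki ratio also reported.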

The target of assay [3] is T1, PRMT5. Kind of assay: PRMT5 IC50 assay in the presence of SAM as cofactor. It counts as biochemical. The method, boiled down: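 Human PRMT5 inhibition, IC50 in μM; cofactor varied (SAM / MTA / none).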
Another assay has as its system HAP1 MTAP-deleted. Kind of assay: SDMA in-cell western assay, HAP1 MTAP-deleted cell line. The assay is classed as cell-based. To be noted: for IC50: Homo sapiens, HAP1 MTAP-deleted cell line; for MTAP Intact/Deleted Ratio: IC50 ratio HAP1 MTAP-intact / HAP1 MTAP-deleted. The method, boiled down:
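MTAP-null HAP1 cells, the deleted member of an isogenic pair with endogenously MTAP-expressing HAP1, are treated with compound. SDMA is then quantified by in-cell western and an IC50 is calculated.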

Where [4] appears, read: ratio between the Ki in the presence of SAM and the Ki in the presence of MTA.
The mark [5] stands for this setting: ratio between Ki in the presence of SAM and Ki in the presence of MTA.

A value given as a limit tells only on which side of the number the result lay.

T1 sequence (O14744 whole entry): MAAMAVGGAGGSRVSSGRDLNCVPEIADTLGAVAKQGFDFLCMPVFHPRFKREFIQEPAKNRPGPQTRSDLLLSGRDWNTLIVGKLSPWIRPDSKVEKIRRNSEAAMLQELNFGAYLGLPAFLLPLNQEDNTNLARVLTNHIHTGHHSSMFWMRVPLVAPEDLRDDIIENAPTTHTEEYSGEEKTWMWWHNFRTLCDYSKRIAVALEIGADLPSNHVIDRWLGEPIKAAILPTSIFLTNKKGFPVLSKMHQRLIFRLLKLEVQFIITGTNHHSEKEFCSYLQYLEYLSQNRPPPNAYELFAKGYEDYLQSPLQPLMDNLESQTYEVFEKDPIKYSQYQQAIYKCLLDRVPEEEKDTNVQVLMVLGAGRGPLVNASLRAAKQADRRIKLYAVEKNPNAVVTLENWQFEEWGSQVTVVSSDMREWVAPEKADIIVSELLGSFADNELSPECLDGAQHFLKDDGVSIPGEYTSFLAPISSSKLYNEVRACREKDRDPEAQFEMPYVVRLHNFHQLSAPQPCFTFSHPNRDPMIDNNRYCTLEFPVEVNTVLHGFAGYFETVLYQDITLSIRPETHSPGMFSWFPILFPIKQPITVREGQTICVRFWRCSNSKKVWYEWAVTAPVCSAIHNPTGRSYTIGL
T1 sequence (Q9BQA1 whole entry partner): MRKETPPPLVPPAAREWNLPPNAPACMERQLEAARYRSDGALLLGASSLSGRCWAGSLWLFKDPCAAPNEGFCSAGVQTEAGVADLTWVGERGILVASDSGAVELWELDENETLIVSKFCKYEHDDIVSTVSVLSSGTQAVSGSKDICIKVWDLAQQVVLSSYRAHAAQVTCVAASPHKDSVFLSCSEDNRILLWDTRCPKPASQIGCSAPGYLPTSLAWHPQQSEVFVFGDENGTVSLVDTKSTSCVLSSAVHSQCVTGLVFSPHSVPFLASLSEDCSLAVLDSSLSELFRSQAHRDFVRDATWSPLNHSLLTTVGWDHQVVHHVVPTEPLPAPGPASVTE

The IC50 is the concentration needed to halve the response being measured. Consider `CC(=O)N1CC(Nc2cc(C(=O)NC[C@H](O)CN3CCc4cc(OCc5ocnc5C)ccc4C3)nc(N3CCCCC3)n2)C1` [Compound 534, 6-[(1-acetylazetidin-3-yl)amino]-N-[(2S)-2-hydroxy-3-{6-[(4-methyl-1,3-oxazol-5-yl)methoxy]-1,2,3,4-tetrahydroisoquinolin-2-yl}propyl]-2-(piperidin-1-yl)pyrimidine-4-carboxamide], for which the IC50 in the assay on HAP1 MTAP-intact is 1 to 10 µM; against PRMT5 [1], 0.5 to 5 µM; at PRMT5 [2], below 0.05 µM; at PRMT5 [3] it was 0.05 to 0.5 µM; in the assay with HAP1 MTAP-deleted it was below 1 µM. Moreover, the “SAM/MTA Ratio” value at PRMT5 [2] (setting [4]) was “A (a Ki ratio greater than or equal to 10 fold between the Ki in the presence of SAM and the Ki in the presence of MTA)”. In addition, the “MTAP Intact/Deleted Ratio” value in the assay with HAP1 MTAP-deleted is “A* (an IC50 ratio greater than or equal to 10 fold between the IC50 in the HAP1 MTAP-intact cell line and the HAP1 MTAP-deleted cell line)”.
Consider `O=C(NC[C@H](O)CN1CCc2cc(OCc3cnco3)ccc2C1)c1ccnc(NC2CN(C(=O)C3CCC3)C2)c1` [Compound 468, 2-[[1-(cyclobutanecarbonyl)azetidin-3-yl]amino]-N-[(2S)-2-hydroxy-3-[6-(oxazol-5-ylmethoxy)-3,4-dihydro-1H-isoquinolin-2-yl]propyl]pyridine-4-carboxamide], for which the IC50 was 1 to 10 µM in the assay on HAP1 MTAP-intact; 0.5 to 5 µM against PRMT5 [1]; 0.05 to 0.5 µM at PRMT5 [2]; 0.05 to 0.5 µM at PRMT5 [3]; 1 to 10 µM in the assay on HAP1 MTAP-deleted. At PRMT5 [2] (setting [4]), the “SAM/MTA Ratio” value was “A (a Ki ratio greater than or equal to 10 fold between the Ki in the presence of SAM and the Ki in the presence of MTA)”. In addition, in the assay with HAP1 MTAP-deleted, the “MTAP Intact/Deleted Ratio” value was “B* (an IC50 ratio greater than or equal to 3 fold but lower than 10 fold between the IC50 in the HAP1 MTAP-intact cell line and the HAP1 MTAP-deleted cell line)”.
Regarding `O=C(NC[C@H](O)CN1CCc2cc(OCc3cnco3)ccc2C1)c1cncc(NC2CCC2)c1` [Compound 270, (S)-5-(cyclobutylamino)-N-(2-hydroxy-3-(6-(oxazol-5-ylmethoxy)-3N-dihydroisoquinolin-2(1H)-yl)propyl)nicotinamide], the IC50 in the assay on HAP1 MTAP-intact was below 1 µM; on PRMT5 [1] (read-out: No Co-factor IC50), 0.5 to 5 µM; at PRMT5 [2] it was 0.05 to 0.5 µM; on PRMT5 [3] it was 0.05 to 0.5 µM; in the assay on HAP1 MTAP-deleted it was below 1 µM. Besides, at PRMT5 [2] (setting [5]), the “SAM/MTA Ratio” value is “A (a Ki ratio greater than or equal to 10 fold between the Ki in the presence of SAM and the Ki in the presence of MTA)”. For the same compound, the “MTAP Intact/Deleted Ratio” value in the assay on HAP1 MTAP-deleted was “C* (an IC50 ratio of less than 3 fold between the IC50 in the HAP1 MTAP-intact cell line and the HAP1 MTAP-deleted cell line)”.
Regarding `Cc1ncoc1COc1ccc2c(c1I)CCN(C[C@@H](O)CNC(=O)c1ccnc(NC3CCC3)c1)C2` [Compound 268, 2-(cyclobutylamino)-N-[(2S)-2-hydroxy-3-[5-iodo-6-[(4-methyloxazol-5-yl)methoxy]-3,4-dihydro-1H-isoquinolin-2-yl]propyl]pyridine-4-carboxamide], the IC50 in the assay with HAP1 MTAP-intact is at least 10 µM; at PRMT5 [1] (read-out: No Co-factor IC50) it was at least 5 µM; at PRMT5 [2], 0.5 to 5 µM; on PRMT5 [3], 0.5 to 5 µM; with HAP1 MTAP-deleted, at least 10 µM. The “MTAP Intact/Deleted Ratio” value in the assay on HAP1 MTAP-deleted was “C* (an IC50 ratio of less than 3 fold between the IC50 in the HAP1 MTAP-intact cell line and the HAP1 MTAP-deleted cell line)”.
Take `CCC(=O)N1CCN(c2nc(NC3COC3)cc(C(=O)NC[C@H](O)CN3CCc4c(ccc(OCc5cnco5)c4Cl)C3)n2)CC1` [Compound 318, (S)—N-(3-(5-chloro-6-(oxazol-5-ylmethoxy)-3N-dihydroisoquinolin-2(1H)-yl)-2-hydroxypropyl)-6-(oxetan-3-ylamino)-2-(4-propionylpiperazin-1-yl)pyrimidine-4-carboxamide]: the IC50 with HAP1 MTAP-intact was at least 10 µM; on PRMT5 [1] (read-out: No Co-factor IC50), 0.5 to 5 µM; at PRMT5 [2], 0.05 to 0.5 µM; on PRMT5 [3], 0.05 to 0.5 µM; in the assay with HAP1 MTAP-deleted, 1 to 10 µM. Moreover, the “SAM/MTA Ratio” value at PRMT5 [2] (setting [5]) was “A (a Ki ratio greater than or equal to 10 fold between the Ki in the presence of SAM and the Ki in the presence of MTA)”. Moreover, the “MTAP Intact/Deleted Ratio” value with HAP1 MTAP-deleted was “C* (an IC50 ratio of less than 3 fold between the IC50 in the HAP1 MTAP-intact cell line and the HAP1 MTAP-deleted cell line)”.
Take `COc1cc(C(=O)NC[C@H](O)CN2CCc3cc(OCc4cnco4)ccc3C2)cc(NC2CCC2)n1` [Compound 310, (S)-2-(cyclobutylamino)-N-(2-hydroxy-3-(6-(oxazol-5-ylmethoxy)-3,4-dihydroisoquinolin-2(1H)-yl)propyl)-6-methoxyisonicotinamide]: the IC50 in the assay on HAP1 MTAP-intact is 1 to 10 µM; on PRMT5 [1] (read-out: No Co-factor IC50), at least 5 µM; on PRMT5 [2] it was 0.05 to 0.5 µM; on PRMT5 [3] it was 0.5 to 5 µM; with HAP1 MTAP-deleted, 1 to 10 µM. Also, the “SAM/MTA Ratio” value on PRMT5 [2] (setting [5]) is “A (a Ki ratio greater than or equal to 10 fold between the Ki in the presence of SAM and the Ki in the presence of MTA)”. In the assay on HAP1 MTAP-deleted, the “MTAP Intact/Deleted Ratio” value is “B* (an IC50 ratio greater than or equal to 3 fold but lower than 10 fold between the IC50 in the HAP1 MTAP-intact cell line and the HAP1 MTAP-deleted cell line)”.
For the compound `O=C(NC[C@H](O)CN1CCc2c(ccc(OCc3cnco3)c2Br)C1)c1cc(NC2CCC2)ncn1` [Compound 361, (S)—N-(3-(5-bromo-6-(oxazol-5-ylmethoxy)-3,4-dihydroisoquinolin-2(1H)-yl)-2-hydroxypropyl)-6-(cyclobutylamino)pyrimidine-4-carboxamide], the IC50 is at least 10 µM with HAP1 MTAP-intact; at least 5 µM at PRMT5 [1] (read-out: No Co-factor IC50); 0.5 to 5 µM on PRMT5 [2]; 0.5 to 5 µM on PRMT5 [3]; at least 10 µM with HAP1 MTAP-deleted. Besides, the “SAM/MTA Ratio” value on PRMT5 [2] (setting [5]) was “A (a Ki ratio greater than or equal to 10 fold between the Ki in the presence of SAM and the Ki in the presence of MTA)”. In the assay with HAP1 MTAP-deleted, the “MTAP Intact/Deleted Ratio” value is “C* (an IC50 ratio of less than 3 fold between the IC50 in the HAP1 MTAP-intact cell line and the HAP1 MTAP-deleted cell line)”.
Take `CCC(=O)N1CC(Nc2cc(C(=O)NC[C@H](O)CN3CCc4c(ccc(OCc5cnco5)c4Cl)C3)ccn2)C1` [Compound 426, (S)—N-(3-(5-chloro-6-(oxazol-5-ylmethoxy)-3,4-dihydroisoquinolin-2(1H)-yl)-2-hydroxypropyl)-2-((1-propionylazetidin-3-yl)amino)isonicotinamide]: the half-inhibitory concentration (IC50) in the assay with HAP1 MTAP-intact was at least 10 µM; at PRMT5 [1], 0.5 to 5 µM; on PRMT5 [2], 0.05 to 0.5 µM; at PRMT5 [3], 0.05 to 0.5 µM; in the assay on HAP1 MTAP-deleted, at least 10 µM. Also, the “SAM/MTA Ratio” value on PRMT5 [2] (setting [4]) is “A (a Ki ratio greater than or equal to 10 fold between the Ki in the presence of SAM and the Ki in the presence of MTA)”. Further, the “MTAP Intact/Deleted Ratio” value in the assay with HAP1 MTAP-deleted is “C* (an IC50 ratio of less than 3 fold between the IC50 in the HAP1 MTAP-intact cell line and the HAP1 MTAP-deleted cell line)”.
Turning to `Cc1ncoc1COc1ccc2c(c1)CCN(C[C@@H](O)CNC(=O)c1cc(NC3CCC3)ncc1F)C2` [Compound 614, (S)-2-(cyclobutylamino)-5-fluoro-N-(2-hydroxy-3-(6-((4-methyloxazol-5-yl)methoxy)-3,4-dihydroisoquinolin-2(1H)-yl)propyl)isonicotinamide], the IC50 in the assay on HAP1 MTAP-intact was 1 to 10 µM; on PRMT5 [1] it was 0.5 to 5 µM; at PRMT5 [2], 0.05 to 0.5 µM; at PRMT5 [3], 0.05 to 0.5 µM; in the assay with HAP1 MTAP-deleted, below 1 µM. Moreover, the “SAM/MTA Ratio” value at PRMT5 [2] (setting [4]) was “A (a Ki ratio greater than or equal to 10 fold between the Ki in the presence of SAM and the Ki in the presence of MTA)”. Further, the “MTAP Intact/Deleted Ratio” value in the assay with HAP1 MTAP-deleted is “C* (an IC50 ratio of less than 3 fold between the IC50 in the HAP1 MTAP-intact cell line and the HAP1 MTAP-deleted cell line)”.
As for `O=C(NC[C@H](O)CN1CCc2cc(OCc3cnco3)ccc2C1)c1cncc(NC2CCOC2)c1` (stereo partly drawn) [Compound 355, N—((S)-2-hydroxy-3-(6-(oxazol-5-ylmethoxy)-3,4-dihydroisoquinolin-2(1H)-yl)propyl)-5-((tetrahydrofuran-3-yl)amino)nicotinamide], the half-maximal inhibitory concentration (IC50) was at least 10 µM in the assay with HAP1 MTAP-intact; at least 5 µM on PRMT5 [1] (read-out: No Co-factor IC50); 0.05 to 0.5 µM on PRMT5 [2]; 0.5 to 5 µM on PRMT5 [3]; at least 10 µM with HAP1 MTAP-deleted. Also, at PRMT5 [2] (setting [5]), the “SAM/MTA Ratio” value is “A (a Ki ratio greater than or equal to 10 fold between the Ki in the presence of SAM and the Ki in the presence of MTA)”. Also, in the assay with HAP1 MTAP-deleted, the “MTAP Intact/Deleted Ratio” value is “C* (an IC50 ratio of less than 3 fold between the IC50 in the HAP1 MTAP-intact cell line and the HAP1 MTAP-deleted cell line)”.
As to `CC(=O)N1CCC(Nc2cc(C(=O)NC[C@H](O)CN3CCc4cc(OCc5ocnc5C)ccc4C3)cc(N3CCCCC3)n2)CC1` [Compound 587, 2-[(1-acetylpiperidin-4-yl)amino]-N-[(2S)-2-hydroxy-3-{6-[(4-methyl-1,3-oxazol-5-yl)methoxy]-1,2,3,4-tetrahydroisoquinolin-2-yl}propyl]-6-(piperidin-1-yl)pyridine-4-carboxamide], the IC50 in the assay with HAP1 MTAP-intact is 1 to 10 µM; against PRMT5 [1], 0.5 to 5 µM; on PRMT5 [2] it was 0.05 to 0.5 µM; on PRMT5 [3], 0.05 to 0.5 µM; in the assay with HAP1 MTAP-deleted, below 1 µM. For the same compound, at PRMT5 [2] (setting [4]), the “SAM/MTA Ratio” value is “A (a Ki ratio greater than or equal to 10 fold between the Ki in the presence of SAM and the Ki in the presence of MTA)”. Besides, in the assay on HAP1 MTAP-deleted, the “MTAP Intact/Deleted Ratio” value is “A* (an IC50 ratio greater than or equal to 10 fold between the IC50 in the HAP1 MTAP-intact cell line and the HAP1 MTAP-deleted cell line)”.

The values above are taken from patent publication US11986471B2, “Compounds and methods of use” (Tango Therapeutics, Inc., priority 2018, dated 2024).
